Assay type in all cases: biochemical
Experiment [1] deals with LPA production in blood serum. Nature of the experiment: Inhibitory activity on LPA production in mouse blood serum. The conditions noted are these: mouse blood serum (m), 18:1 LPC added.
The test system of experiment [2] is LPA production in blood serum. Nature of the experiment: Inhibitory activity on LPA production in human blood serum. The conditions noted are these: human blood serum (h), 18:1 LPC added.
Experiment [3] deals with human ENPP2 (Homo sapiens (Human), UniProt Q13822). Nature of the experiment: Inhibitory activity on human ENPP2 (FS-3 assay). Particulars: human ENPP2, FS-3 substrate, Table 2. As for the experimental part:
Two-fold dilution of each test compound solution (10 μM, 100% dimethyl sulfoxide) is carried out on 96-well V bottom plate (Costar 3363). After ten-fold dilution of each the test compound solution (100% dimethyl sulfoxide) with deionized distilled water, 10 μL of the diluted each compound solution (10% dimethyl sulfoxide) was aliquoted to a black flat bottom 96-well plate (Costar 3915).

Where only a bound is given, the exact number is not on record here.

Consider `O=C(Cn1cc(-c2cnc(NC3Cc4ccccc4C3)nc2)c(OCc2ccccc2)n1)N1CCc2[nH]nnc2C1` [Compound 63, 2-[3-(benzyloxy)-4-{2-[(2,3-dihydro-1H-inden-2-yl)amino]pyrimidin-5-yl}-1H-pyrazol-1-yl]-1-{1H,4H,5H,6H,7H-[1,2,3]triazolo[4,5-c]pyridin-5-yl}ethan-1-one], for which the concentration for half-maximal inhibition (IC50) in experiment [1] was 12 nM; in experiment [2], 10 nM.
Regarding `O=C(Cn1cc(-c2cnc(NC3Cc4ccccc4C3)nc2)c(O)n1)N1CCc2[nH]nnc2C1` [Compound 65, 2-(4-{2-[(2,3-dihydro-1H-inden-2-yl)amino]pyrimidin-5-yl}-3-hydroxy-1H-pyrazol-1-yl)-1-{1H,4H,5H,6H,7H-[1,2,3]triazolo[4,5-c]pyridin-5-yl}ethan-1-one], the half-maximal inhibitory concentration (IC50) in experiment [3] is less than 1.56 nM; in experiment [1] it was 30 nM.
For `O=C(Cn1cc(-c2cnc(NC3Cc4ccccc4C3)nc2)c(OCCN2CCOCC2)n1)N1CCc2[nH]nnc2C1` [Compound 66, 2-(4-{2-[(2,3-dihydro-1H-inden-2-yl)amino]pyrimidin-5-yl}-3-[2-(morpholin-4-yl)ethoxy]-1H-pyrazol-1-yl)-1-{1H,4H,5H,6H,7H-[1,2,3]triazolo[4,5-c]pyridin-5-yl}ethan-1-one], in that order: 1.9 nM and 12 nM.
Taken in the same sequence, the figures for `CCN1CC(Oc2nn(CC(=O)N3CCc4[nH]nnc4C3)cc2-c2cnc(NC3Cc4ccccc4C3)nc2)C1` [Compound 68, 2-(4-{2-[(2,3-dihydro-1H-inden-2-yl)amino]pyrimidin-5-yl}-3-[(1-ethylazetidin-3-yl)oxy]-1H-pyrazol-1-yl)-1-{1H,4H,5H,6H,7H-[1,2,3]triazolo[4,5-c]pyridin-5-yl}ethan-1-one] were 1.8 nM and 32 nM.
For `CCN1CCC(Oc2nn(CC(=O)N3CCc4[nH]nnc4C3)cc2-c2cnc(NC3Cc4ccccc4C3)nc2)CC1` [Compound 70, 2-(4-{2-[(2,3-dihydro-1H-inden-2-yl)amino]pyrimidin-5-yl}-3-[(1-ethylpiperidin-4-yl)oxy]-1H-pyrazol-1-yl)-1-{1H,4H,5H,6H,7H-[1,2,3]triazolo[4,5-c]pyridin-5-yl}ethan-1-one], in that order: 2.3 nM and 11 nM.
With `O=C(O)c1ccc(COc2nn(CC(=O)N3CCc4[nH]nnc4C3)cc2-c2cnc(NC3Cc4ccccc4C3)nc2)cc1` [Compound 72, 4-{[(4-{2-[(2,3-dihydro-1H-inden-2-yl)amino]pyrimidin-5-yl}-1-(2-oxo-2-{1H,4H,5H,6H,7H-[1,2,3]triazolo[4,5-c]pyridin-5-yl}ethyl)-1H-pyrazol-3-yl)oxy]methyl}benzoic Acid], the IC50 in experiment [3] amounted to 3.4 nM; in experiment [1], 42 nM.
Taken in the same sequence, the figures for `O=C(O)COc1nn(CC(=O)N2CCc3[nH]nnc3C2)cc1-c1cnc(NC2Cc3ccccc3C2)nc1` [Compound 73, 2-[(4-{2-[(2,3-dihydro-1H-inden-2-yl)amino]pyrimidin-5-yl}-1-(2-oxo-2-{1H,4H,5H,6H,7H-[1,2,3]triazolo[4,5-c]pyridin-5-yl}ethyl)-1H-pyrazol-3-yl)oxy]acetic Acid] were 3.7 nM and 69 nM.
Turning to `CN(C)c1nn(CC(=O)N2CCc3[nH]nnc3C2)cc1-c1cnc(NC2Cc3ccccc3C2)nc1` [Compound 74, 2-(4-{2-[(2,3-dihydro-1H-inden-2-yl)amino]pyrimidin-5-yl}-3-(dimethylamino)-1H-pyrazol-1-yl)-1-{1H,4H,5H,6H,7H-[1,2,3]triazolo[4,5-c]pyridin-5-yl}ethan-1-one], the IC50 in experiment [3] was determined as 1.7 nM; in experiment [1], 15 nM.
Take `CCc1nn(CC(=O)N2CCc3[nH]nnc3C2)cc1-c1cnc(NC2Cc3ccccc3C2)nc1` [Compound 79, 2-(4-{2-[(2,3-dihydro-1H-inden-2-yl)amino]pyrimidin-5-yl}-3-ethyl-1H-pyrazol-1-yl)-1-{1H,4H,5H,6H,7H-[1,2,3]triazolo[4,5-c]pyridin-5-yl}ethan-1-one]: the figures for the half-inhibitory concentration (IC50) in experiment [3] and in experiment [2] were 1.6 nM and 5 nM, respectively.
With `O=C(Cn1cc(-c2cnc(NC3Cc4ccccc4C3)nc2)c(CN2CCOCC2)n1)N1CCc2[nH]nnc2C1` [Compound 80, 2-(4-{2-[(2,3-dihydro-1H-inden-2-yl)amino]pyrimidin-5-yl}-3-(morpholin-4-ylmethyl)-1H-pyrazol-1-yl)-1-{1H,4H,5H,6H,7H-[1,2,3]triazolo[4,5-c]pyridin-5-yl}ethan-1-one], the half-inhibitory concentration (IC50) is less than 1.56 nM in experiment [3] and 6 nM in experiment [1].
Taken in the same sequence, the figures for `O=C(Cn1cc(-c2cnc(NC3Cc4ccccc4C3)nc2)c(CN2CCCCC2)n1)N1CCc2[nH]nnc2C1` [Compound 81, 2-(4-{2-[(2,3-dihydro-1H-inden-2-yl)amino]pyrimidin-5-yl}-3-(piperidin-1-ylmethyl)-1H-pyrazol-1-yl)-1-{1H,4H,5H,6H,7H-[1,2,3]triazolo[4,5-c]pyridin-5-yl}ethan-1-one] were less than 1.56 nM and 5 nM.
Taken in the same sequence, the figures for `O=C1CN(Cc2nn(CC(=O)N3CCc4[nH]nnc4C3)cc2-c2cnc(NC3Cc4ccccc4C3)nc2)CCN1` [Compound 82, 4-[(4-{2-[(2,3-dihydro-1H-inden-2-yl)amino]pyrimidin-5-yl}-1-(2-oxo-2-{1H,4H,5H,6H,7H-[1,2,3]triazolo[4,5-c]pyridin-5-yl}ethyl)-1H-pyrazol-3-yl)methyl]piperazin-2-one] were less than 1.56 nM and 8 nM.
Consider `O=C(Cn1cc(-c2cnc(NC3Cc4ccccc4C3)nc2)c(CN2CCc3ccccc3C2)n1)N1CCc2[nH]nnc2C1` [Compound 84, 2-(4-{2-[(2,3-dihydro-1H-inden-2-yl)amino]pyrimidin-5-yl}-3-(1,2,3,4-tetrahydroisoquinolin-2-ylmethyl)-1H-pyrazol-1-yl)-1-{1H,4H,5H,6H,7H-[1,2,3]triazolo[4,5-c]pyridin-5-yl}ethan-1-one], for which the figures for the IC50 in experiment [3] and in experiment [1] were 2.8 nM and 8 nM, respectively.

The values are drawn from patent US11548883B2, “Compounds as autotaxin inhibitors and pharmaceutical compositions comprising the same” (LegoChem Biosciences, Inc., priority 2017, dated 2023).
